Results taken from patent US20100041089A1, “IMPROVED METHOD FOR DETECTING CHEMICAL […]” (priority 2006, published 2010).

System: yeast genes (expressed mRNA)
Assay: DNA chip measurement of expressed mRNA of yeast genes after culture with a toxic chemical substance
Type: cell-based, Saccharomyces cerevisiae S288C
Details: for level of expressed mRNA in the presence of chemical substance / level in the absence of chemical substance: cultured two hours with the chemical substance; for The level of expressed mRNA in the presence of chemical substance/The level of expressed mRNA in the absence of chemical substance: cultured two hours with substance
Description: Yeast (Saccharomyces cerevisiae S288C (a SUC2mal mel gap2 CUP1)) were cultured at 25° C. on YPD medium (yeast extract 1%, polypeptone 2%, glucose 2%). One of toxic chemical substances was added to the cell at logarithmic growth phase, and the cell was further cultured for two hours. Cell was cultured without any chemical substance in the same condition, and was used as a control. Concentrations of the chemical substances were defined to inhibit the growth of the yeast but not lead to death.
After the completion of cultivation, the culture was centrifuged to collect the cells. To the cells, sodium acetate buffer (50 mM sodium acetate, 10 mM EDTA, 1% SDS) was added, and the mixture was shaken at 65° C. for five minutes, followed by returning to room temperature, and obtaining the supernatant, which procedure was repeated two times. To the supernatant, ½ amount of a solution of phenol/chloroform (1:1) was added, and the mixture was centrifuged to give a supernatant, an equal amount of chloroform was added, and the mixture was centrifuged to give a supernatant. To the supernatant, an equal amount of isopropanol containing 0.3 M sodium acetate was added, and the mixture was allowed to stand at room temperature for 30 minutes, after which the mixture was centrifuged to give sediment of the whole RNAs. Seventy % ethanol was added to the sediment, and the mixture was again centrifuged to give sediment, which was then dried and dissolved in water. mRNA was isolated from the whole RNAs as followings. In view of the fact that a poly A chain is attached to the 3′ terminus of mRNA, a polynucleotide having a poly T structure which was immobilized on the surface of latex beads was used to trap the mRNA, and then the mRNA was washed and eluted with spine column (Oligotex-dT30<Super>mRNA Purification Kit, Takara). Reverse transcription of the mRNA was conducted with a reverse transcriptase (Super Script II Reverse Transcriptase; catalogue No. 18064-014, GibcoBRL) using fluorescence-labeled nucleotides to give cDNAs that were introduced with Cy3-dUTP or Cy5-dUTP during the reverse transcription.
The labeled cDNAs were dissolved in TE buffer (10 mM Tris-HCl/1 mM EDTA, pH 8.0), and the solution was dropped on the DNA chip containing the whole genes of yeast (DNA Chip Research Inc. Japan) so that the cDNAs were hybridized on the DNA chip at 65° C. for over 12 hours. The fluoresces intensity of the DNA chip was read with a scanner, and the ratio relative to the fluorescence intensity resulting from the absence of chemical substance was estimated as the following, which is shown in Tables 1 to 9.
In the Tables, “Intensity” indicated in the rightmost column is a value of the level of expressed mRNA of each gene in control cells as divided by the average level of the expressions of the whole genes. A gene of which mRNA level is lower in control, and is higher in cases of addition of chemical substance, is especially useful in the detection of toxic substances.
Here, when a ratio of an amount of mRNA expressed in the presence of the chemical substance to an amount of mRNA expressed in the absence of the chemical substance is two or more, then it is considered significant.

[Cl][Cd][Cl] [(2), CdCl2]
level of expressed mRNA in the presence of chemical substance / level in the absence of chemical substance (yeast gene YNL058C): 1.0 | level of expressed mRNA in the presence of chemical substance / level in the absence of chemical substance (yeast gene YNL063W): 1.9 | The level of expressed mRNA in the presence of chemical substance/The level of expressed mRNA in the absence of chemical substance (yeast gene YNL074C): 1.3 | The level of expressed mRNA in the presence of chemical substance/The level of expressed mRNA in the absence of chemical substance (yeast gene YNL092W): 1.4 | The level of expressed mRNA in the presence of chemical substance/The level of expressed mRNA in the absence of chemical substance (yeast gene YNL115C): 1.8 | The level of expressed mRNA in the presence of chemical substance/The level of expressed mRNA in the absence of chemical substance (yeast gene YNL156C): 1.2 | level of expressed mRNA in the presence of chemical substance / level in the absence of chemical substance (yeast gene YNL176C): 1.3 | level of expressed mRNA in the presence of chemical substance / level in the absence of chemical substance (yeast gene YNL194C): 0.7 | level of expressed mRNA in the presence of chemical substance / level in the absence of chemical substance (yeast gene YNL200C): 3.0 | The level of expressed mRNA in the presence of chemical substance/The level of expressed mRNA in the absence of chemical substance (yeast gene YNL234W): 1.1 | level of expressed mRNA in the presence of chemical substance / level in the absence of chemical substance (yeast gene YNL253W): 1.3 | level of expressed mRNA in the presence of chemical substance / level in the absence of chemical substance (yeast gene YNL276C): 13.1 | The level of expressed mRNA in the presence of chemical substance/The level of expressed mRNA in the absence of chemical substance (yeast gene YNL281W): 1.3 | The level of expressed mRNA in the presence of chemical substance/The level of expressed mRNA in the absence of chemical substance (yeast gene YNL305C): 2.2 | level of expressed mRNA in the presence of chemical substance / level in the absence of chemical substance (yeast gene YNR051C): 0.5 | The level of expressed mRNA in the presence of chemical substance/The level of expressed mRNA in the absence of chemical substance (yeast gene YNR068C): 1.5 | level of expressed mRNA in the presence of chemical substance / level in the absence of chemical substance (yeast gene YOL026C): 2.7 | The level of expressed mRNA in the presence of chemical substance/The level of expressed mRNA in the absence of chemical substance (yeast gene YOL032W): 0.8 | The level of expressed mRNA in the presence of chemical substance/The level of expressed mRNA in the absence of chemical substance (yeast gene YOL036W): 0.9 | The level of expressed mRNA in the presence of chemical substance/The level of expressed mRNA in the absence of chemical substance (yeast gene YOL047C): 1.1 | The level of expressed mRNA in the presence of chemical substance/The level of expressed mRNA in the absence of chemical substance (yeast gene YOL071W): 2.0 | The level of expressed mRNA in the presence of chemical substance/The level of expressed mRNA in the absence of chemical substance (yeast gene YOL082W): 1.6 | The level of expressed mRNA in the presence of chemical substance/The level of expressed mRNA in the absence of chemical substance (yeast gene YOL083W): 2.3 | The level of expressed mRNA in the presence of chemical substance/The level of expressed mRNA in the absence of chemical substance (yeast gene YOL117W): 1.1 | The level of expressed mRNA in the presence of chemical substance/The level of expressed mRNA in the absence of chemical substance (yeast gene YOL131W): 1.5 | The level of expressed mRNA in the presence of chemical substance/The level of expressed mRNA in the absence of chemical substance (yeast gene YOL150C): 3.7 | The level of expressed mRNA in the presence of chemical substance/The level of expressed mRNA in the absence of chemical substance (yeast gene YOL162W): 6.9 | The level of expressed mRNA in the presence of chemical substance/The level of expressed mRNA in the absence of chemical substance (yeast gene YOR019W): 1.2 | level of expressed mRNA in the presence of chemical substance / level in the absence of chemical substance (yeast gene YOR022C): 1.1 | level of expressed mRNA in the presence of chemical substance / level in the absence of chemical substance (yeast gene YOR087W): 1.0 | level of expressed mRNA in the presence of chemical substance / level in the absence of chemical substance (yeast gene YOR138C): 1.5 | The level of expressed mRNA in the presence of chemical substance/The level of expressed mRNA in the absence of chemical substance (yeast gene YOR197W): 1.0 | level of expressed mRNA in the presence of chemical substance / level in the absence of chemical substance (yeast gene YOR253W): 2.8 | level of expressed mRNA in the presence of chemical substance / level in the absence of chemical substance (yeast gene YOR267C): 0.7 | level of expressed mRNA in the presence of chemical substance / level in the absence of chemical substance (yeast gene YOR325W): 2.6 | level of expressed mRNA in the presence of chemical substance / level in the absence of chemical substance (yeast gene YPL005W): 1.0 | The level of expressed mRNA in the presence of chemical substance/The level of expressed mRNA in the absence of chemical substance (yeast gene YPL087W): 5.1 | level of expressed mRNA in the presence of chemical substance / level in the absence of chemical substance (yeast gene YPL150W): 0.9 | level of expressed mRNA in the presence of chemical substance / level in the absence of chemical substance (yeast gene YPL152W): 1.1 | level of expressed mRNA in the presence of chemical substance / level in the absence of chemical substance (yeast gene YPL168W): 1.5 | level of expressed mRNA in the presence of chemical substance / level in the absence of chemical substance (yeast gene YPL180W): 2.0 | level of expressed mRNA in the presence of chemical substance / level in the absence of chemical substance (yeast gene YPL188W): 1.2 | The level of expressed mRNA in the presence of chemical substance/The level of expressed mRNA in the absence of chemical substance (yeast gene YPL196W): 1.6 | The level of expressed mRNA in the presence of chemical substance/The level of expressed mRNA in the absence of chemical substance (yeast gene YPL206C): 2.9 | level of expressed mRNA in the presence of chemical substance / level in the absence of chemical substance (yeast gene YPL221W): 3.0 | The level of expressed mRNA in the presence of chemical substance/The level of expressed mRNA in the absence of chemical substance (yeast gene YPL222W): 3.5 | level of expressed mRNA in the presence of chemical substance / level in the absence of chemical substance (yeast gene YPL225W): 1.7 | The level of expressed mRNA in the presence of chemical substance/The level of expressed mRNA in the absence of chemical substance (yeast gene YPR023C): 1.4 | level of expressed mRNA in the presence of chemical substance / level in the absence of chemical substance (yeast gene YPR049C): 2.5 | level of expressed mRNA in the presence of chemical substance / level in the absence of chemical substance (yeast gene YPR146C): 1.6 | level of expressed mRNA in the presence of chemical substance / level in the absence of chemical substance (yeast gene YPR148C): 1.2 | The level of expressed mRNA in the presence of chemical substance/The level of expressed mRNA in the absence of chemical substance (yeast gene YPR151C): 2.0 | level of expressed mRNA in the presence of chemical substance / level in the absence of chemical substance (yeast gene YPR172W): 1.6
